Assays:
Type in all cases: in vivo
Plutella xylostella = assay: whole plant or invertebrate; conditions: in Brassica oleracea, 144 h
Description: (§1) A 10% emulsifiable concentrate of the compound of the present invention (depending on the type of the compound, a 10% wettable powder was subjected to the test) was diluted with water containing a spreader to prepare a drug solution in a concentration of 10 ppm. In this drug solution, a leaf of cabbage was immersed for about 10 seconds and was air-dried and then put into a petri dish. In the petri dish, five 2 instar larvae of Plutella xylostella per petri dish were released and the petri dish was capped and stored in a thermostatic room of 25° C. The number of killed larvae after 6 days was measured and the mortality was calculated from the following calculation formula: Mortality (%)=(number of killed insect/number of released insect)×100. Here, the test was carried out on the duplicate samples.

Spodoptera litura = assay: whole plant or invertebrate; conditions: in Brassica oleracea, 144 h
Description: as §1, with “Spodoptera litura” for “Plutella xylostella”, “same” for “following”, “formula as that in Test Example 1.” for “formula: Mortality (%)=(number of killed insect/number of released insect)×100.”

Spodoptera exigua = assay: Mortality Test for Spodoptera exigua; conditions: in Brassica oleracea, 144 h
Description: as §1, with “of 100” for “of 10”, “of Spodoptera exigua” for “of Plutella xylostella”, “the same” for “the following”, “calculation formula as that in Test Example 1.” for “calculation formula: Mortality (%)=(number of killed insect/number of released insect)×100.”

Homona magnanima = assay: Mortality Test for Homona magnanima; conditions: in Brassica oleracea, 144 h
Description: as §1, with “of 100” for “of 10”, “of Homona magnanima” for “of Plutella xylostella”, “the same” for “the following”, “calculation formula as that in Test Example 1.” for “calculation formula: Mortality (%)=(number of killed insect/number of released insect)×100.”

[1] = test system: Frankliniella occidentalis; assay: whole plant or invertebrate; conditions: in Phaseolus vulgaris, 48 h
Description: (§2) In a styrol cup having an inner diameter of 7 cm, a wet filtration paper was laid and on the paper, a leaf of kidney bean cut out so as to have the same diameter as the inner diameter of the cup was laid, followed by inoculating ten 1 instar larvae of Frankliniella occidentalis per leaf with the leaf. A 10% emulsifiable concentrate of the compound of the present invention (depending on the type of the compound, a 10% wettable powder was subjected to the test) was diluted with water containing a spreader to prepare a drug solution in a concentration of 500 ppm. The drug solution was sprayed using a rotary spray tower in an amount of 2.5 mL per styrol cup, and the cup was capped and stored in a thermostatic room of 25° C. The number of killed larvae after 2 days was measured and the mortality was calculated from the same calculation formula as that in Test Example 1. Here, the test was carried out on the duplicate samples.

Nilaparvata lugens = assay: whole plant or invertebrate; conditions: in Oryza sativa, 144 h
Description: (§3) A 10% emulsifiable concentrate of the compound of the present invention (depending on the type of the compound, a 10% wettable powder was subjected to the test) was diluted with water containing a spreader to prepare a drug solution in a concentration of 500 ppm. In this drug solution, a leaf sheath of rice was immersed for about 10 seconds and was air-dried and then put into a test tube. In the test tube, five 2 instar larvae of Nilaparvata lugens per test tube were released and the test tube was capped with a sponge and stored in a thermostatic room of 25° C. The number of killed larvae after 6 days was measured and the mortality was calculated from the same calculation formula as that in Test Example 1. Here, the test was carried out on the duplicate samples.

Myzus persicae = assay: whole plant or invertebrate; conditions: in Brassica oleracea, 144 h
Description: In a glass petri dish having an inner diameter of 3 cm, a wet absorbent cotton was laid and on the cotton, a leaf of cabbage cut out so as to have the same diameter as the inner diameter of the petri dish was laid, followed by releasing four apterous imagines of Myzus persicae on the leaf. After one day, a 10% emulsifiable concentrate of the compound of the present invention (depending on the type of the compound, a 10% wettable powder was subjected to the test) was diluted with water containing a spreader to prepare a drug solution in a concentration of 500 ppm. The drug solution was sprayed using a rotary spray tower (2.5 mg/cm^2), and the petri dish was capped and stored in a thermostatic room of 25° C. The number of killed imagines after 6 days was measured and the mortality was calculated from the same calculation formula as that in Test Example 1. Here, the test was carried out on the duplicate samples.

Tetranychus urticae = assay: whole plant or invertebrate; conditions: in Phaseolus vulgaris, 144 h
Description: as §2, with “ten” for “ten 1 instar”, “of Tetranychus urticae” for “of Frankliniella occidentalis”, “after 6” for “after 2”

Liriomyza trifolii = assay: whole plant or invertebrate; conditions: in Phaseolus vulgaris, 144 h
Description: as §3, with “leaf” for “leaf sheath”, “kidney bean which was cut out to a diameter of 7 cm, on which Liriomyza trifolii laid eggs (10 eggs/leaf)” for “rice”, “laid on” for “put into”, “wet filtration paper laid in a styrol cup having an inner diameter” for “test tube. In the test tube, five 2 instar larvae”, “7 cm. The styrol cup” for “Nilaparvata lugens per test tube were released and the test tube”, “capped” for “capped with a sponge”

Helicoverpa armigera = assay: Mortality Test for Helicoverpa armigera (Comparative Test); conditions: in Brassica oleracea, 144 h
Description: 10% emulsifiable concentrates of the compound of the present invention and a comparative compound were diluted with water containing a spreader to prepare drug solutions in a predetermined concentration. In each of the drug solutions, a leaf of cabbage was immersed for about 10 seconds and was air-dried and put into a petri dish. In the petri dish, seven 3 instar larvae of Helicoverpa armigera per petri dish were released and the petri dish was capped with a lid having a pore and stored in a thermostat room of 25° C. After 2 days of the treatment, an artificial fertilizer (1 cm^3) was added into the petri dish. The number of killed larvae after 6 days was measured and the mortality was calculated from the calculation formula: Mortality (%)=(number of killed insect/number of released insect)×100. Here, the test was carried out on the duplicate samples.

SMILES | mortality at 10 ppm (Plutella xylostella) | mortality at 10 ppm (Spodoptera litura) | mortality at 100 ppm (Homona magnanima) | mortality at 500 ppm [1] | mortality at 500 ppm (Myzus persicae) | mortality at 500 ppm (Tetranychus urticae) | mortality at 100 ppm (Plutella xylostella) | mortality at 100 ppm (Spodoptera litura) | mortality at 500 ppm (Liriomyza trifolii) | other results
CSCC(=O)NC(C)c1ccc(C2=NOC(c3cc(C(F)(F)F)cc(C(F)(F)F)c3)(C(F)(F)F)C2)cc1 (stereo not drawn) [1-001, N-[1-[4-[5-[3,5-bis(trifluoromethyl)phenyl]-5-trifluoromethyl-4,5-dihydroisoxazole-3-yl]phenyl]ethyl]-2-(methylthio)acetamide] | ≥ 80% | ≥ 80% | ≥ 80% | ≥ 80% | ≥ 80% | ≥ 80% |  |  |  | mortality at 100 ppm (Spodoptera exigua): ≥ 80%; mortality at 500 ppm (Nilaparvata lugens): ≥ 80%
O=C(CSCC(F)(F)F)NCc1ccc(C2=NOC(c3cc(Cl)c(Cl)c(Cl)c3)(C(F)(F)F)C2)cc1Cl (stereo not drawn) [1-029, N-[2-chloro-4-[5-(3,4,5-trichlorophenyl)-5-trifluoromethyl-4,5-dihydroisoxazole-3-yl]phenyl]methyl-2-(2,2,2-trifluoroethylthio)acetamide] | ≥ 80% | ≥ 80% | ≥ 80% | ≥ 80% | ≥ 80% | ≥ 80% |  |  |  | mortality at 500 ppm (Nilaparvata lugens): ≥ 80%
COCSCC(=O)NCc1ccc(C2=NOC(c3cc(Cl)c(Cl)c(Cl)c3)(C(F)(F)F)C2)cc1Cl (stereo not drawn) [1-030, N-[2-chloro-4-[5-(3,4,5-trichlorophenyl)-5-trifluoromethyl-4,5-dihydroisoxazole-3-yl]phenyl]methyl-2-(methoxymethylthio)acetamide] |  |  |  |  |  |  | ≥ 80% | ≥ 80% |  | 
CS(CC(=O)NCc1ccc(C2=NOC(c3cc(Cl)c(Cl)c(C(F)(F)F)c3)(C(F)(F)F)C2)cc1Br)=NC#N (stereo not drawn) [1-103, N-[2-bromo-4-[5-[3,4-dichloro-5-(trifluoromethyl)phenyl]-5-trifluoromethyl-4,5-dihydroisoxazole-3-yl]phenyl]methyl-2-[N-(cyano)methylsulfinimidoyl]acetamide] |  |  |  |  |  |  | ≥ 80% | ≥ 80% |  | 
CCS(=N)(=O)CC(=O)NCc1ccc(C2=NOC(c3cc(C(F)(F)F)cc(C(F)(F)F)c3)(C(F)(F)F)C2)cc1Cl (stereo not drawn) [1-173, N-[2-chloro-4-[5-[3,5-bis(trifluoromethyl)phenyl]-5-trifluoromethyl-4,5-dihydroisoxazole-3-yl]phenyl]methyl-2-(ethylsulfonimidoyl)acetamide] | ≥ 80% | ≥ 80% |  | ≥ 80% |  | ≥ 80% |  |  | ≥ 80% | 
C[S+]([O-])C(C(=O)NCc1ccc(C2=NOC(c3cc(C(F)(F)F)cc(C(F)(F)F)c3)(C(F)(F)F)C2)cc1Cl)[S+](C)[O-] (stereo not drawn) [1-211, N-[4-[5-[3,5-bis(trifluoromethyl)phenyl]-5-trifluoromethyl-4,5-dihydroisoxazole-3-yl]-2-chlorophenyl]methyl-2,2-bis(methylsulfinyl)acetamide] |  |  |  |  |  |  | ≥ 80% | ≥ 80% | ≥ 80% | mortality at 100 ppm (Tetranychus urticae): ≥ 80%
CCSC(C(=O)NCc1ccc(C2=NOC(c3cc(C(F)(F)F)cc(C(F)(F)F)c3)(C(F)(F)F)C2)cc1Cl)[S+]([O-])CC (stereo not drawn) [1-220, N-[4-[5-[3,5-bis(trifluoromethyl)phenyl]-5-trifluoromethyl-4,5-dihydroisoxazole-3-yl]-2-chlorophenyl]methyl-2-ethylsulfinyl-2-(ethylthio)acetamide] |  |  | ≥ 80% |  |  |  | ≥ 80% | ≥ 80% | ≥ 80% | mortality at 100 ppm (Myzus persicae): ≥ 80%; mortality at 100 ppm (Tetranychus urticae): ≥ 80%
CCSC(C(=O)NCc1ccc(C2=NOC(c3cc(C(F)(F)F)cc(C(F)(F)F)c3)(C(F)(F)F)C2)cc1Cl)S(=O)(=O)CC (stereo not drawn) [1-225, N-[4-[5-[3,5-bis(trifluoromethyl)phenyl]-5-trifluoromethyl-4,5-dihydroisoxazole-3-yl]-2-chlorophenyl]methyl-2-ethylsulfonyl-2-(ethylthio)acetamide] |  |  |  |  | ≥ 80% | ≥ 80% | ≥ 80% | ≥ 80% |  | 
CSCC(=O)NCc1ccc(C2=NOC(c3cc(Cl)cc(Cl)c3)(C(F)(F)F)C2)cc1Cl (stereo not drawn) [Comparative compound A] |  |  |  |  |  |  |  |  |  | mortality at 1 ppm (Helicoverpa armigera): 0%; mortality at 3 ppm (Helicoverpa armigera): 57.1%; mortality at 10 ppm (Helicoverpa armigera): 92.9%; mortality at 33 ppm (Helicoverpa armigera): 100%
